Measured values published in PubChem BioAssay (NCI).
“And” between values parts separate entries of the source, which are not always exact repeats. Equal entries are not always repeated.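 Tested at 5 concentrations; 48 h exposure; 96-well plates; endpoints linearly interpolated, else capped at highest concentration. GI50 is the concentration that inhibits growth by half. TGI marks complete inhibition of growth.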

What was measured:
Experiment in all cases: inhibition of tumour cell growth, NCI panel, 48 h
[1] = test system: UO-31 renal
[2] = test system: ACHN renal
[3] = test system: M14 melanoma
[4] = test system: NCI-H460 lung
[5] = test system: SK-OV-3 ovarian
[6] = test system: TK-10 renal
[7] = test system: MOLT-4 leukemia
[8] = test system: LOX IMVI melanoma
[9] = test system: MDA-MB-231 breast
[10] = test system: PC-3 prostate

SMILES | TGI [1] | TGI [2] | TGI [3] | TGI [4] | TGI [5] | TGI [6] | TGI [7] | TGI [8] | GI50 [1] | GI50 [2] | GI50 [5] | GI50 [6] | GI50 [9] | TGI [9] | GI50 [10] | TGI [10] | GI50 [3] | GI50 [4] | GI50 [8] | GI50 [7]
N#C/C(=C\c1cc(O)ccc1O)C(N)=O | > 100 µM | > 100 µM | > 100 µM | > 100 µM | > 100 µM | > 100 µM | 60.1 µM |  |  |  |  |  |  |  |  |  |  |  |  | 
O=C(CO[N+](=O)[O-])OC/C=C/c1ccccc1 | > 100 µM | > 100 µM | > 100 µM | > 100 µM | > 100 µM | > 100 µM | > 100 µM | > 100 µM |  |  |  |  |  |  |  |  |  |  |  | 
CN(C)C(=O)NC(=S)N(C)C | > 100 µM | > 100 µM | > 100 µM | > 100 µM | > 100 µM | > 100 µM | > 100 µM |  |  |  |  |  |  |  |  |  |  |  |  | 
CN(NC1OC(CO)C(O)C(O)C1O)c1ccccc1 (stereo unspecified) |  | > 100 µM | > 100 µM | > 100 µM |  | > 100 µM | > 100 µM | > 100 µM |  |  |  |  |  |  |  |  |  |  |  | 
COc1ccc(-c2ccccc2)c2[nH]c3c(c12)CCNC3=O | > 100 µM |  | > 100 µM | > 100 µM |  | > 100 µM | > 100 µM | > 100 µM |  |  |  |  |  |  |  |  |  |  |  | 
O=C(N/C(=C\c1ccccc1Cl)c1nc2ccccc2[nH]1)c1ccccc1 | 44.8 µM | > 100 µM | 54.3 µM |  | > 100 µM | > 100 µM | > 100 µM |  |  |  |  |  |  |  |  |  |  |  |  | 
c1ccc(-c2n(Cc3ccc4ccccc4c3)cc[n+]2Cc2ccc3ccccc3c2)cc1 | 2.87 µM | 3.43 µM |  |  | 2.89 µM | 2.83 µM |  |  | 1.47 µM | 1.77 µM | 1.49 µM | 1.34 µM | 1.07 µM | 2.35 µM | 1.22 µM | 2.68 µM |  |  |  | 
Cc1cc(=O)n(-c2c(C)cccc2Cl)c(/C=C(\O)c2ccncc2)n1 | > 100 µM | > 100 µM | > 100 µM | > 100 µM | > 100 µM | > 100 µM | > 100 µM | > 100 µM |  |  |  |  |  |  |  |  |  |  |  | 
COc1ccccc1/C=C/C1=C(C)CCC(c2ccccc2OC)C1C (stereo unspecified) | > 100 µM | > 100 µM | 0.655 µM | 1.27 µM | > 100 µM | 45.1 µM |  | > 56.8 µM | 0.371 µM | 0.272 µM | 0.382 µM | 0.227 µM | 0.157 µM | 6.41 µM | 0.392 µM | > 100 µM | 0.16 µM | 0.278 µM | 0.184 µM | 
COc1cc(/C=C/c2ccc(Br)cc2)cc(OC)c1OC | 80.1 µM | > 100 µM | 87.6 µM | 49.4 µM | > 89.9 µM | > 100 µM | 15.6 µM | > 100 µM |  |  |  |  |  |  |  |  |  |  |  | 
COc1ccc2c(c1)[n+](=O)c(C(=O)C/C(=N/NC(=O)C[N+](C)(C)C)C(=O)Nc1cccc(C)c1C)c(C)n2O | > 100 µM | > 100 µM | > 100 µM | > 100 µM | > 100 µM |  |  |  |  |  |  |  |  |  |  |  |  |  |  | 
CC1=C(C(=O)NCc2ccccc2)C(c2ccccc2C)C(C(=O)NCc2ccccc2)=C(C)N1 | > 93.3 µM | 38.4 µM | 42.8 µM | 45.9 µM | > 100 µM | 99.6 µM | > 100 µM | 35.7 µM |  |  |  |  |  |  |  |  |  |  |  | 
CC(=O)OCC1OC(OCc2ccccc2)C(Br)C(OC(C)=O)C1OC(C)=O (stereo unspecified) |  | > 100 µM | > 100 µM | > 100 µM |  | > 100 µM | > 100 µM | > 100 µM |  |  |  |  |  |  |  |  |  |  |  | 
CC(C)N(C(=O)C12C3C4C1C1C2C3C41I)C(C)C (stereo unspecified) | > 100 µM | > 100 µM | > 100 µM | > 100 µM | > 100 µM | > 100 µM | > 100 µM |  |  |  |  |  |  |  |  |  |  |  |  | 
O=C(O)c1c(Cl)c(Cl)c(Cl)c(Cl)c1C(=O)Nc1ccc2cn[nH]c2c1 | > 100 µM | > 100 µM | > 100 µM | > 100 µM | > 100 µM | > 100 µM |  |  |  |  |  |  |  | > 100 µM |  | > 100 µM |  |  |  | 
COC1OC(CBr)C(OC(=O)c2ccccc2)C(OS(=O)(=O)c2ccc(C)cc2)C1Br (stereo unspecified) | > 100 µM | > 100 µM | > 100 µM | > 100 µM |  | > 100 µM | > 100 µM | > 100 µM |  |  |  |  |  |  |  |  |  |  |  | 
COC(=O)C1(C)CC2C(C)(CCC3(C)C4=CC=C5C(=CC(=O)C(O)=C5C)C4(C)CCC23C)CC1O (stereo unspecified) | 3.19 µM | 1.53 µM | 3.26 µM |  | 4.13 µM | 1.59 µM | 0.931 µM |  |  |  |  |  |  | 1.77 µM |  | 3.12 µM |  |  |  | 
O=C1c2ccccc2C(=O)c2c1ccc1c(=O)n(-c3ccccc3C(F)(F)F)nnc21 | > 100 µM | > 100 µM |  | 5.07 µM | > 100 µM | > 100 µM | 8.12 µM | 4.2 µM | 1.68 µM | 2.7 µM | 3.52 µM | 3.89 µM | 2.07 µM | 7.04 µM | 2.2 µM | > 100 µM |  | 1.97 µM | 1.59 µM | 1.53 µM

SMILES | TGI [1] | TGI [2] | TGI [3] | TGI [4] | TGI [5] | TGI [6] | TGI [7] | TGI [8] | GI50 [1] | GI50 [2] | GI50 [5] | GI50 [6] | GI50 [9] | TGI [9] | GI50 [10] | TGI [10] | GI50 [3] | GI50 [4] | GI50 [8] | GI50 [7]
COc1cc2c(cc1O)CN1CCC23C=C[C@@H](O)CC13 (stereo partly specified) | > 100 µM | > 100 µM | > 100 µM | > 100 µM | > 100 µM | > 100 µM | > 100 µM | > 100 µM |  |  |  |  |  |  |  |  |  |  |  | 
O=S(=O)(c1ccccc1)N1CN2CN(C1)CN(S(=O)(=O)c1ccccc1)C2 | > 100 µM | > 100 µM | > 100 µM | > 100 µM | > 100 µM | > 100 µM |  | > 100 µM |  |  |  |  |  | > 100 µM |  | > 100 µM |  |  |  | 
O=C(N/N=C(/c1nc2ccc([N+](=O)[O-])cc2[nH]c1=O)C(O)c1ccc([N+](=O)[O-])cc1)c1ccncc1 (stereo unspecified) | > 100 µM | > 100 µM | > 100 µM | > 100 µM | > 100 µM | > 100 µM | > 100 µM | > 100 µM |  |  |  |  |  |  |  |  |  |  |  | 
COc1ccc(S(=O)(=O)N[C@H](C(=O)O)c2ccccc2)cc1 | > 100 µM | > 100 µM | > 100 µM | > 100 µM | > 100 µM | > 100 µM | > 100 µM | > 100 µM |  |  |  |  |  |  |  |  |  |  |  | 
CN(C)CCn1cnc2ncccc2c1=O | > 100 µM | > 100 µM | > 100 µM | > 100 µM | > 100 µM | > 100 µM | > 100 µM | > 100 µM |  |  |  |  |  |  |  |  |  |  |  | 
CCN(CC)CC(=O)NC1c2ccccc2Oc2c(C)cccc21 (stereo unspecified) | > 100 µM | > 100 µM | > 100 µM | > 100 µM | > 100 µM | > 100 µM | > 100 µM | > 100 µM |  |  |  |  |  |  |  |  |  |  |  | 
COc1cc(-c2ccc(NC(=O)SCCC(=O)O)cc2OC)ccc1NC(=O)SCCC(=O)O | > 100 µM | > 100 µM | > 100 µM | > 100 µM |  | > 100 µM | > 100 µM | > 100 µM |  |  |  |  |  |  |  |  |  |  |  | 
CC(=O)OC(C)(C)/C=C/C(=O)[C@](C)(O)[C@H]1[C@H](O)C[C@@]2(C)[C@@H]3CC=C4[C@@H](C=C(O)C(=O)C4(C)C)[C@]3(C)C(=O)C[C@]12C |  | 0.25 µM and 0.0794 µM | 0.722 µM and 1.01 µM | 1.81 µM and 1.68 µM and 1.49 µM |  | 0.15 µM and 0.204 µM |  |  |  | 0.0306 µM |  |  |  | 3.39 µM | 0.0408 µM | 1.48 µM | 0.0193 µM |  |  | 
C[C@H](CS)C(=O)N1c2ccccc2C[C@H]1C(=O)O | > 100 µM | > 100 µM |  | > 100 µM | > 100 µM | > 100 µM | > 100 µM |  |  |  |  |  |  | > 100 µM |  | > 100 µM |  |  |  | 
COC1[C@H](NC(=O)OC(C)(C)C)C(=O)N1Cc1ccccc1 (stereo partly specified) | > 100 µM | > 100 µM | > 100 µM | > 100 µM | > 100 µM | > 100 µM | > 100 µM | > 100 µM |  |  |  |  |  |  |  |  |  |  |  | 
CCOC(=O)C(NO)C(Sc1ccccc1)c1ccc(OC)cc1 (stereo unspecified) | > 100 µM | > 100 µM | > 100 µM | > 100 µM | > 100 µM | > 100 µM | > 100 µM | > 100 µM |  |  |  |  |  |  |  |  |  |  |  | 
CC1CCC(=O)C(C(O)CC2CC(=O)N(c3ccccc3)C(=O)C2)C1 (stereo unspecified) | > 100 µM | > 100 µM | > 100 µM | > 100 µM | > 100 µM | > 100 µM | > 100 µM | > 100 µM |  |  |  |  |  |  |  |  |  |  |  | 
O=C(CCl)Nc1cc(Cl)c(Cl)cc1Cl |  | 4.58 µM | 2.96 µM | 7.04 µM | > 10 µM | 3.27 µM | > 10 µM | 3.03 µM |  |  |  |  |  | 2.9 µM |  | 3.29 µM |  |  |  | 
CCCCCCCCCCCCCCCCc1c(C(=O)OC)nc(NN)[nH]c1=O | > 50 µM | > 50 µM | > 50 µM | > 50 µM | > 50 µM | > 50 µM | > 50 µM | > 50 µM |  |  |  |  |  |  |  |  |  |  |  | 
Clc1ccc(CCc2ccncn2)c(Cl)c1 | 94 µM | > 100 µM | > 100 µM | > 100 µM | > 100 µM | > 100 µM | > 100 µM | > 100 µM |  |  |  |  |  |  |  |  |  |  |  | 
CCCCCCCCCCSC(=O)NC | > 100 µM | > 100 µM | 50 µM | > 100 µM | > 100 µM | > 100 µM | 46.5 µM | > 100 µM |  |  |  |  |  |  |  |  |  |  |  | 
O=C1c2cccnc2C(=O)c2c1c(C(=O)NCCn1ccnc1)c1ccccn21 | 41.6 µM | 36 µM | 6.13 µM | 2.29 µM | 21.3 µM |  | 47.9 µM | 5.54 µM | 4.07 µM | 2.75 µM | 8.88 µM |  | 3.46 µM | > 100 µM | 3.33 µM | 15.2 µM | 1.91 µM | 0.551 µM | 1.59 µM | 3.89 µM
